In publication PMC8524809 (Molecular Therapy, 2021):

Experiments:
[1] = system: SARS-CoV-2 S pseudovirion alpha variant; assay type: cell-based; conditions: similar to the WT
[2] = system: SARS-CoV-2 S pseudovirion beta variant; assay type: cell-based; conditions: similar to the WT

Q: Which results are given for `CC(C)(O)c1ccccc1CC[C@@H](SCC1(CC(=O)O)CC1)c1cccc(/C=C/c2ccc3ccc(Cl)cc3n2)c1` [montelukast]?
A: Inhibition of pseudovirus entry [1]: increase in a dose-dependent manner; Inhibition of pseudovirus entry [2]: increase in a dose-dependent manner
